Where a name gives a salt, the structure may show the parent alone.
Settings: heated at 60-70° C.

NNc1nncc2ccccc12 [Hydralazine HCl]
solubility in the aqueous phase of the formulation: fully soluble

From patent US20220080026A1, “FORMULATIONS” (Sublimity Therapeutics Limited, priority 2013, published 2022)
